Data on 5 compounds can be found in ChEMBL document CHEMBL1649573, “Protein kinase G is required for intrinsic antibiotic resistance in mycobacteria” (2009).

Assay [1] deals with Mycolicibacterium smegmatis. The assay is described as follows: Antimycobacterial activity against Mycobacterium smegmatis MC2 155 harboring PknG K181M mutant gene by Etest method. It is filed as functional. As to conditions: str. MC2 155.
Assay [2] has as its system Mycolicibacterium smegmatis. The assay is described as follows: Antimycobacterial activity against Mycobacterium smegmatis MC2 155 by Etest method. It is filed as functional. As to conditions: str. MC2 155.
Assay [3] has as its system Mycolicibacterium smegmatis. Put plainly: Antimycobacterial activity against PknGMsm-deficient Mycobacterium smegmatis harboring PknG K181M mutant gene by Etest method. It is filed as functional.
Assay [4] deals with Mycobacterium tuberculosis. The assay is described as follows: Antimycobacterial activity against PknGMtb-deficient Mycobacterium tuberculosis H37Rv at 100 mg/l after 7 days by microscopy. The assay is classed as functional, organism-based.
Assay [5] deals with Mycolicibacterium smegmatis. Put plainly: Antimycobacterial activity against Mycobacterium smegmatis harboring PknG Msm gene by Etest method. The assay is classed as functional.
Assay [6] deals with Mycobacterium tuberculosis. Put plainly: Antimycobacterial activity against Mycobacterium tuberculosis H37Rv at 100 mg/l after 7 days by microscopy. The assay is classed as functional, organism-based.
In assay [7] the test system is Mycolicibacterium smegmatis. Put plainly: Antimycobacterial activity against PknGMsm-deficient Mycobacterium smegmatis by Etest method. The assay is classed as functional.
Assay [8] concerns Mycolicibacterium smegmatis. The assay is described as follows: Antimycobacterial activity against Mycobacterium smegmatis MAR4 harboring disrupted PknGMsm gene by Etest method. The assay is classed as functional.

Each structure is given as a SMILES string. In brackets after ≈: the same amount, converted by molar mass. Activity calls are given as the source filed them. No cut-off for these calls is given here.

What is called MIC is the lowest concentration that inhibits growth of the organism. As for `CC[C@H]1OC(=O)[C@H](C)[C@@H](O[C@H]2C[C@@](C)(OC)[C@@H](O)[C@H](C)O2)[C@H](C)[C@@H](O[C@@H]2O[C@H](C)C[C@H](N(C)C)[C@H]2O)[C@](C)(O)C[C@@H](C)C(=O)[C@H](C)[C@@H](O)[C@]1(C)O` [ERYTHROMYCIN], the MIC in assay [1] was determined as 12 µg/mL (≈ 16.4 µM); in assay [2], 32 µg/mL (≈ 43.6 µM); in assay [3] it was 3 µg/mL (≈ 4.09 µM); in assay [5], 32 µg/mL (≈ 43.6 µM); in assay [7], 3 µg/mL (≈ 4.09 µM); in assay [8], 4 µg/mL (≈ 5.45 µM). Further, in assay [4], the result was Active. Moreover, the result in assay [6] was inactive.

`C[C@@H](O)[C@H]1C(=O)N2C(C(=O)O)=C(SCCNC=N)C[C@H]12` [IMIPENEM ANHYDROUS]: the minimum inhibitory concentration (MIC) was found to be 1 µg/mL (≈ 3.34 µM) in assay [1]; 6 µg/mL (≈ 20 µM) in assay [2]; 0.38 µg/mL (≈ 1.27 µM) in assay [3]; 6 µg/mL (≈ 20 µM) in assay [5]; 0.38 µg/mL (≈ 1.27 µM) in assay [7]; 0.38 µg/mL (≈ 1.27 µM) in assay [8].

Turning to `CO[C@H]1/C=C/O[C@@]2(C)Oc3c(C)c(O)c4c(O)c(c(/C=N/N5CCN(C)CC5)c(O)c4c3C2=O)NC(=O)/C(C)=C\C=C\[C@H](C)[C@H](O)[C@@H](C)[C@@H](O)[C@@H](C)[C@H](OC(C)=O)[C@@H]1C` [RIFAMPIN], the MIC in assay [1] was 4 µg/mL (≈ 4.86 µM); in assay [2], over 32 µg/mL; in assay [5], over 32 µg/mL; in assay [7], 4 µg/mL (≈ 4.86 µM); in assay [8], 4 µg/mL (≈ 4.86 µM).

Consider `CN[C@H](CC(C)C)C(=O)N[C@H]1C(=O)N[C@@H](CC(N)=O)C(=O)N[C@H]2C(=O)N[C@H]3C(=O)N[C@H](C(=O)N[C@H](C(=O)O)c4cc(O)cc(O)c4-c4cc3ccc4O)[C@H](O)c3ccc(c(Cl)c3)Oc3cc2cc(c3O[C@@H]2O[C@H](CO)[C@@H](O)[C@H](O)[C@H]2O[C@H]2C[C@](C)(N)[C@H](O)[C@H](C)O2)Oc2ccc(cc2Cl)[C@H]1O` [VANCOMYCIN], for which the minimum inhibitory concentration (MIC) in assay [1] amounted to 16 µg/mL (≈ 11 µM); in assay [2], 48 µg/mL (≈ 33.1 µM); in assay [3], 4 µg/mL (≈ 2.76 µM); in assay [5], 48 µg/mL (≈ 33.1 µM); in assay [7], 4 µg/mL (≈ 2.76 µM); in assay [8] it was 4 µg/mL (≈ 2.76 µM).

As to `CC[C@@H](CO)NCCN[C@@H](CC)CO` [ETHAMBUTOL], the MIC was found to be 0.064 µg/mL (≈ 0.313 µM) in assay [1]; 0.25 µg/mL (≈ 1.22 µM) in assay [2]; 0.25 µg/mL (≈ 1.22 µM) in assay [5]; 0.064 µg/mL (≈ 0.313 µM) in assay [7]; 0.064 µg/mL (≈ 0.313 µM) in assay [8].
